These results are taken from patent publication US11685746B2, “Heteroaryl compounds for treating Huntington's disease” (PTC THERAPEUTICS, INC., priority 2018, dated 2023).

The structures appear in SMILES notation. pIC50: −log10 of the molar value.

The test concerns Endogenous Huntingtin Protein. The test can be described thus: Endogenous Huntingtin Protein Assay (MSD plates, MW1 or MAB2166 capture antibody). Format: cell-based. Particulars: Table 1. Summed up: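 Endogenous huntingtin was captured overnight at 4° C on wells coated with 1 μg/mL MW1 (polyglutamine-specific) or MAB2166. Detection used rabbit #5656S and then goat anti-rabbit SULFO-TAG, both at 0.25 μg/mL and 1 h at room temperature. Plates were imaged on the MSD system in read buffer T.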
In the case of `[2H]C([2H])([2H])n1cc(-c2ccc(-c3nc4sc(N(C)C5CCN(C)CC5)nc4s3)c(O)c2)cn1` [Compound 58, 2-{5-[methyl(1-methylpiperidin-4-yl)amino][1,3]thiazolo[5,4-d][1,3]thiazol-2-yl}-5-[1-(^2H3)methyl-1H-pyrazol-4-yl]phenol], the pIC50 is at least 7.00.

As for `CCN1CCC(N(C)c2nc3sc(-c4ccc(-c5cnn(C)c5)cc4O)nc3s2)CC1` [Compound 59, 2-{5-[(1-ethylpiperidin-4-yl)(methyl)amino][1,3]thiazolo[5,4-d][1,3]thiazol-2-yl}-5-(1-methyl-1H-pyrazol-4-yl)phenol], the pIC50 was at least 7.00. The compound `CN(c1nc2sc(-c3ncc(-n4ccnc4)cc3O)nc2s1)C1CCNCC1` [Compound 60, 5-(1H-imidazol-1-yl)-2-{5-[methyl(piperidin-4-yl)amino][1,3]thiazolo[5,4-d][1,3]thiazol-2-yl}pyridin-3-ol] gave a negative logarithm of the IC50 (pIC50) of 5.52 to 6.00. Next, `CCN(c1nc2sc(-c3ncc(-c4cn[nH]c4)cc3O)nc2s1)C1CCNCC1` [Compound 61, 2-{5-[ethyl(piperidin-4-yl)amino][1,3]thiazolo[5,4-d][1,3]thiazol-2-yl}-5-(1H-pyrazol-4-yl)pyridin-3-ol]: at least 7.00. Next, `CN(c1nc2sc(-c3ncc(-n4cc(F)cn4)cc3O)nc2s1)C1CCNCC1` [Compound 62, 5-(4-fluoropyrazol-1-yl)-2-[5-[methyl(4-piperidyl)amino]thiazolo[5,4-d]thiazol-2-yl]pyridin-3-ol]: 5.52 to 6.00. Next, `Cc1cnn(-c2cnc(-c3nc4sc(N(C)C5CCNCC5)nc4s3)c(O)c2)c1` [Compound 63, 5-(4-methylpyrazol-1-yl)-2-[5-[methyl(4-piperidyl)amino]thiazolo[5,4-d]thiazol-2-yl]pyridin-3-ol]: 5.05 to 5.52; `CN(c1nc2sc(-c3ncc(-c4cncs4)cc3O)nc2s1)C1CCNCC1` [Compound 64, 5-(thiazol-5-yl)-2-{5-[methyl(piperidin-4-yl)amino][1,3]thiazolo[5,4-d][1,3]thiazol-2-yl}pyridin-3-ol]: 6.30 to 7.00. `COc1cc(-c2cnc(-c3nc4sc(N(C)[C@H]5C[C@]6(C)CC[C@](C)(C5)N6)nc4s3)cn2)ncn1` [Compound 65, N-[(1R,3s,5S)-1,5-dimethyl-8-azabicyclo[3.2.1]octan-3-yl]-5-[5-(6-methoxypyrimidin-4-yl)pyrazin-2-yl]-N-methyl[1,3]thiazolo[5,4-d][1,3]thiazol-2-amine] showed a negative-log IC50 (pIC50) of 6.30 to 7.00. As to `C[C@H]1C[C@H](N(C)c2nc3sc(-c4cnc(-n5ccnc5)cn4)nc3s2)CCN1` [Compound 66, 5-[5-(1H-imidazol-1-yl)pyrazin-2-yl]-N-methyl-N-[(2S,4R)-2-methylpiperidin-4-yl][1,3]thiazolo[5,4-d][1,3]thiazol-2-amine], the negative-log IC50 (pIC50) is at least 7.00. In turn, `Cc1nccn1-c1cnc(-c2nc3sc(N(C)[C@H]4C[C@]5(C)CC[C@](C)(C4)N5)nc3s2)cn1` [Compound 67, N-[(1R,3s,5S)-1,5-dimethyl-8-azabicyclo[3.2.1]octan-3-yl]-N-methyl-5-[5-(2-methyl-1H-imidazol-1-yl)pyrazin-2-yl][1,3]thiazolo[5,4-d][1,3]thiazol-2-amine] gave a pIC50 of at least 7.00. Next, `C[C@@H]1C[C@@H](Oc2nc3sc(-c4ccc(-c5cn[nH]c5)c5nc[nH]c45)nc3s2)CCN1` [Compound 68, 7-(5-{[(2R,4S)-2-methylpiperidin-4-yl]oxy}[1,3]thiazolo[5,4-d][1,3]thiazol-2-yl)-4-(1H-pyrazol-4-yl)-1H-benzimidazole]: at least 7.00; `COc1cc(-c2cnc(-c3nc4sc(N(C)[C@H]5C[C@]6(C)CC[C@](C)(C5)N6)nc4s3)cn2)ccn1` [Compound 69, N-[(1R,3s,5S)-1,5-dimethyl-8-azabicyclo[3.2.1]octan-3-yl]-5-[5-(2-methoxypyridin-4-yl)pyrazin-2-yl]-N-methyl[1,3]thiazolo[5,4-d][1,3]thiazol-2-amine]: 6.30 to 7.00. As for `CN(c1nc2sc(-c3cnc(-n4cncn4)cn3)nc2s1)[C@H]1C[C@]2(C)CC[C@](C)(C1)N2` [Compound 70, N-[(1R,3s,5S)-1,5-dimethyl-8-azabicyclo[3.2.1]octan-3-yl]-N-methyl-5-[5-(1H-1,2,4-triazol-1-yl)pyrazin-2-yl][1,3]thiazolo[5,4-d][1,3]thiazol-2-amine], the negative logarithm of the IC50 (pIC50) was at least 7.00.

In turn, `Cc1n[nH]c(C)c1-c1cnc(-c2nc3sc(N(C)[C@H]4C[C@]5(C)CC[C@](C)(C4)N5)nc3s2)cn1` [Compound 73, N-[(1R,3s,5S)-1,5-dimethyl-8-azabicyclo[3.2.1]octan-3-yl]-5-[5-(3,5-dimethyl-1H-pyrazol-4-yl)pyrazin-2-yl]-N-methyl[1,3]thiazolo[5,4-d][1,3]thiazol-2-amine] showed a negative logarithm of the IC50 (pIC50) of 5.52 to 6.00. For `C[C@@H]1C[C@@H](Oc2nc3sc(-c4ncc(-c5cn[nH]c5)c5cn[nH]c45)nc3s2)CCN1` [Compound 74, 7-(5-{[(2R,4S)-2-methylpiperidin-4-yl]oxy}[1,3]thiazolo[5,4-d][1,3]thiazol-2-yl)-4-(1H-pyrazol-4-yl)-1H-pyrazolo[3,4-c]pyridine] the value was at least 7.00. Next, `C[C@H]1C[C@H](N(C)c2nc3sc(-c4ncc(-c5cn[nH]c5)c5cc[nH]c45)nc3s2)CCN1` [Compound 75, N-methyl-N-[(2S,4R)-2-methylpiperidin-4-yl]-5-[4-(1H-pyrazol-4-yl)-1H-pyrrolo[2,3-c]pyridin-7-yl][1,3]thiazolo[5,4-d][1,3]thiazol-2-amine]: at least 7.00; `C[C@@H]1C[C@@H](Oc2nc3sc(-c4ncc(-c5cn[nH]c5)c5cc[nH]c45)nc3s2)CCN1` [Compound 76, 7-(5-{[(2R,4S)-2-methylpiperidin-4-yl]oxy}[1,3]thiazolo[5,4-d][1,3]thiazol-2-yl)-4-(1H-pyrazol-4-yl)-1H-pyrrolo[2,3-c]pyridine]: at least 7.00; `CC1(C)CC(Oc2nc3sc(-c4ncc(-c5cn[nH]c5)c5cc[nH]c45)nc3s2)CCN1` (stereo not shown) [Compound 77, 7-{5-[(2,2-dimethylpiperidin-4-yl)oxy][1,3]thiazolo[5,4-d][1,3]thiazol-2-yl}-4-(1H-pyrazol-4-yl)-1H-pyrrolo[2,3-c]pyridine]: at least 7.00. The compound `C[C@@H]1C[C@@H](Oc2nc3sc(-c4ccc(-c5cn[nH]c5)c5cn[nH]c45)nc3s2)CCN1` [Compound 78, 7-(5-{[(2R,4S)-2-methylpiperidin-4-yl]oxy}[1,3]thiazolo[5,4-d][1,3]thiazol-2-yl)-4-(1H-pyrazol-4-yl)-1H-indazole] had a pIC50 of at least 7.00. For `CN(c1nc2sc(-c3ncc(-c4cn[nH]c4)nn3)nc2s1)[C@H]1C[C@]2(C)CC[C@](C)(C1)N2` [Compound 79, N-[(1R,3s,5S)-1,5-dimethyl-8-azabicyclo[3.2.1]octan-3-yl]-N-methyl-5-[6-(1H-pyrazol-4-yl)-1,2,4-triazin-3-yl][1,3]thiazolo[5,4-d][1,3]thiazol-2-amine] the value was at least 7.00; for `C[C@H]1C[C@H](N(C)c2nc3sc(-c4ncc(-n5ccnc5)c5cc[nH]c45)nc3s2)CCN1` [Compound 80, 5-[4-(1H-imidazol-1-yl)-1H-pyrrolo[2,3-c]pyridin-7-yl]-N-methyl-H-[(2S,4R)-2-methylpiperidin-4-yl][1,3]thiazolo[5,4-d][1,3]thiazol-2-amine], at least 7.00; for `C[C@H]1C[C@H](Oc2nc3sc(-c4ncc(-c5nnn(C)n5)c5cc[nH]c45)nc3s2)CCN1` [Compound 81, 7-(5-{[(2S,4R)-2-methylpiperidin-4-yl]oxy}[1,3]thiazolo[5,4-d][1,3]thiazol-2-yl)-4-(2-methyl-2H-tetrazol-5-yl)-1H-pyrrolo[2,3-c]pyridine], at least 7.00. In turn, `C[C@@H]1C[C@@H](Oc2nc3sc(-c4ccc(-c5cn[nH]c5)c5cc[nH]c45)nc3s2)CCN1` [Compound 82, 7-(5-{[(2R,4S)-2-methylpiperidin-4-yl]oxy}[1,3]thiazolo[5,4-d][1,3]thiazol-2-yl)-4-(1H-pyrazol-4-yl)-1H-indole] had a negative-log IC50 (pIC50) of at least 7.00.

As for `C[C@@H]1C[C@@H](Oc2nc3sc(-c4ncc(-c5cn[nH]c5)c5nc[nH]c45)nc3s2)CCN1` [Compound 83, 4-(5-{[(2R,4S)-2-methylpiperidin-4-yl]oxy}[1,3]thiazolo[5,4-d][1,3]thiazol-2-yl)-7-(1H-pyrazol-4-yl)-3H-imidazo[4,5-c]pyridine], the pIC50 is at least 7.00. `C[C@H]1C[C@H](Oc2nc3sc(-c4ncc(-c5cn[nH]c5)c5cc[nH]c45)nc3s2)CCN1C` [Compound 84, 7-(5-{[(2S,4R)-1,2-dimethylpiperidin-4-yl]oxy}[1,3]thiazolo[5,4-d][1,3]thiazol-2-yl)-4-(1H-pyrazol-4-yl)-1H-pyrrolo[2,3-c]pyridine]: the pIC50 was at least 7.00.

As for `C[C@@H]1C[C@@H](N(C)c2nc3sc(-c4ncc(-c5cn[nH]c5)c5cc[nH]c45)nc3s2)CCN1` [Compound 85, N-methyl-N-[(2R,4S)-2-methylpiperidin-4-yl]-5-[4-(1H-pyrazol-4-yl)-1H-pyrrolo[2,3-c]pyridin-7-yl][1,3]thiazolo[5,4-d][1,3]thiazol-2-amine], the pIC50 was at least 7.00. In turn, `Cc1[nH]ncc1-c1cnc(-c2nc3sc(N(C)[C@H]4C[C@]5(C)CC[C@](C)(C4)N5)nc3s2)cn1` [Compound 86, N-[(1R,3s,5S)-1,5-dimethyl-8-azabicyclo[3.2.1]octan-3-yl]-N-methyl-5-[5-(5-methyl-1H-pyrazol-4-yl)pyrazin-2-yl][1,3]thiazolo[5,4-d][1,3]thiazol-2-amine] had a negative-log IC50 (pIC50) of at least 7.00. `C[C@@H]1C[C@@H](N(C)c2nc3sc(-c4ncc(-c5cn[nH]c5)c5cc[nH]c45)nc3s2)CCN1` [Compound 87, N-methyl-N-[(2R,4S)-2-methylpiperidin-4-yl]-5-[4-(1H-pyrazol-4-yl)-1H-pyrrolo[2,3-c]pyridin-7-yl][1,3]thiazolo[5,4-d][1,3]thiazol-2-amine]: the negative logarithm of the IC50 (pIC50) was at least 7.00.

The pIC50 is the negative decadic logarithm of the IC50, by convention in mol/L. Higher therefore signals a small IC50.
